No end group written: not given here.
Key:
[1] = system: inflammatory cytokine production; conditions: cell cultures; cited from earlier work
LONG-COVID-19 symptoms = experiment: Treatment of patients suffering from post-COVID-19 syndrome (long COVID) with daily s.c. injection of HEP-1, single case reports; assay type: in vivo, human
[2] = Toxicity at high dosages (general statement); assay type: in vivo; conditions: high dosages of 50 mg per kg of body weight per day or higher
Description: The dosage of Ezrin peptide 1 and its analogues of the formula (I) is not particularly critical, as Ezrin peptide 1 and its analogues are not toxic even at high dosages of 50 mg per kg of body weight per day or higher. Preferably, Ezrin peptide 1 and its analogues are administered to an adult human in an amount of at least 0.05 milligrams per day (mg/d), in particular at least 0.1 mg/d, e.g. in an amount of 0.05 to 5 mg/d, in particular 0.1 to 2 mg/d or 0.1 to 1 mg/d or 0.1 to 0.5 mg/d. Typically, for parenteral administrations lower dosages will be required than for oral or rectal administration. To achieve a rapid relief of the symptoms of post-COVID-19 syndrome, it may also be reasonable to administer at least 0.5 mg per day or at least 1 mg per day, e.g. in the range of 0.5 to 5 mg/d, but in other cases a lower dosage may be suitable. It is also possible to start with a higher dosage, e. g. in the range of 0.5 to 5 mg/d, more preferably 0.5 to 3 mg/d and then continue with a lower dosage of e.g. 0.05 to 0.5 mg/d or 0.1 to 0.5 mg/day. A single administration of Ezrin peptide 1 and/or one of its analogues of the formula (I) may be sufficient to ameliorate or even cure the symptoms of a post-COVID-19 syndrome. […] Depending on the severity of the symptoms, this time period is typically in the range of 5 days to 10 weeks and in particular in the range of 10 days to 8 weeks.

cell cultures = conditions: R. Ataullakhanov et al. 2005; cited from earlier work

Sequence: TEKKRRETVEREKE [HEP-1, NH2_Thr-Glu-Lys-Lys-Arg-Arg-Glu-Thr-Val-Glu-Arg-Glu-Lys-Glu_COOH]
- production of pro- and inflammatory cytokins (e.g. IL-1, IL-6, TNF-alpha) [1]: reduces
- synthesis of alpha- and beta interferons [1]: induces
- final clinical outcome of long COVID (LONG-COVID-19 symptoms; Example 1, person, HEP-1 0.2 mg s.c. per day 22 Jan. 2021 until Mar. 10 2021, assessed 10 Mar. 2021): complete recovery
- mental ability (short memory) and physical strength (walking distance), interim outcome (LONG-COVID-19 symptoms; Example 1, person, HEP-1 0.2 mg s.c. per day from 22 Jan. 2021, assessed 29 Jan. 2021): remarkable improvement
- mental ability (short memory) and physical strength (walking distance), interim outcome (LONG-COVID-19 symptoms; Example 2, person, ankylosis spondylitis, HEP-1 0.2 mg s.c. per day from 26 Feb. 2021, assessed 4 Mar. 2021): remarkable improvement
- final clinical outcome of long COVID (LONG-COVID-19 symptoms; Example 2, person, HEP-1 0.2 mg s.c. per day 26 Feb. 2021 until Mar. 17 2021, assessed 17 Mar. 2021): complete recovery
- final clinical outcome of long COVID (LONG-COVID-19 symptoms; Example 3, person, HEP-1 0.2 mg s.c. per day 29 Mar. 2021 until Apr. 24 2021, assessed 23 Apr. 2021): complete recovery
- mental ability (short memory) and physical strength (walking distance), interim outcome (LONG-COVID-19 symptoms; Example 3, person, HEP-1 0.2 mg s.c. per day from 29 Mar. 2021, assessed 15 Apr. 2021): remarkable improvement
- final clinical outcome of long COVID (persisting fatigue syndrome) (LONG-COVID-19 symptoms; Example 4, person, HEP-1 0.2 mg s.c. per day for 10 days): free of any symptoms
- final clinical outcome of long COVID (fatigue syndrome and cognitive disorder) (LONG-COVID-19 symptoms; Example 5, person, HEP-1 0.2 mg s.c. per day from 26 Feb. 2021, assessed 12 Mar. 2021): free of any symptoms
- final clinical outcome of long COVID (LONG-COVID-19 symptoms; Example 6, person, asthma, HEP-1 2 mg s.c. per day for 10 days, then 0.2 mg s.c. per day for 30 days, after 3 weeks of treatment): cured
- final clinical outcome of long COVID (fatigue, cognitive disorder, narcolepsy) (LONG-COVID-19 symptoms; Example 7, person, HEP-1 0.2 mg s.c. per day, after 11 days of treatment): symptoms completely disappeared
- toxicity [2]: not toxic
- anti-viral effect in cell cultures (cell cultures): shows an anti-viral effect

— US20240180999A1, “EZRIN PEPTIDE 1 FOR USE IN A METHOD OF TREATING POST COVID-19” (priority 2021, published 2024)
